Assays:
Plasminogen [1] = molecular target: T1, Plasminogen (Homo sapiens, UniProt P00747); test: Ability to inhibit human plasmin using Chromozym-PL as substrate at concentration of 1 uM
[2] = molecular target: T2, Tissue-type plasminogen activator (Homo sapiens, UniProt P00750); test: Ability to inhibit human tissue plasminogen activator stimulator at concentration of 1 uM
Target sequence in this assay (P00750 36-562 limits assumed): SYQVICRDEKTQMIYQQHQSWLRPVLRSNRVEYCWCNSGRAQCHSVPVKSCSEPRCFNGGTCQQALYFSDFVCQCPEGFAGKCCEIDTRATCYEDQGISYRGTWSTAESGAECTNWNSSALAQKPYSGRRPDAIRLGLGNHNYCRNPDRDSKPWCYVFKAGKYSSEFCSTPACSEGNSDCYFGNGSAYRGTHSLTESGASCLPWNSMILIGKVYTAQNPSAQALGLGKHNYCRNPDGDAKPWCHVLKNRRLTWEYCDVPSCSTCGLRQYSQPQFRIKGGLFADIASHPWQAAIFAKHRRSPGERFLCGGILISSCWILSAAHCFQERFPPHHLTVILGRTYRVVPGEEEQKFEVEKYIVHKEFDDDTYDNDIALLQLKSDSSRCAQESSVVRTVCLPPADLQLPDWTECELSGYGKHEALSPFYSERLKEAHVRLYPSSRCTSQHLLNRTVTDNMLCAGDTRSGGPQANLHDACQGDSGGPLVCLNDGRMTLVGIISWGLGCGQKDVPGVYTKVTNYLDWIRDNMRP

[3] = molecular target: Urokinase-type plasminogen activator (Homo sapiens, UniProt P00749); test: In vitro inhibition of human urokinase Plasminogen Activator.
[4] = molecular target: T2, Tissue-type plasminogen activator; test: Ability to inhibit tissue plasminogen activator (quadratech) and S-2444 as substrate at concentration of 1 mM
Target sequence in this assay (P00750 36-562 limits assumed): as above

Plasminogen [5] = molecular target: T1, Plasminogen; test: In vitro inhibition of human plasmin.; set-up: concentration or dose not given beside the values; conditions: concentration not given here
Plasminogen [6] = molecular target: T1, Plasminogen; test: Ability to inhibit plasmin using human plasmin (quadratech) and Chromozym-PL (boehringer) as substrate at concentration of 100 uM
[7] = molecular target: T2, Tissue-type plasminogen activator; test: Ability to inhibit tissue plasminogen activator (quadratech) and S-2444 as substrate
Target sequence in this assay (P00750 whole entry): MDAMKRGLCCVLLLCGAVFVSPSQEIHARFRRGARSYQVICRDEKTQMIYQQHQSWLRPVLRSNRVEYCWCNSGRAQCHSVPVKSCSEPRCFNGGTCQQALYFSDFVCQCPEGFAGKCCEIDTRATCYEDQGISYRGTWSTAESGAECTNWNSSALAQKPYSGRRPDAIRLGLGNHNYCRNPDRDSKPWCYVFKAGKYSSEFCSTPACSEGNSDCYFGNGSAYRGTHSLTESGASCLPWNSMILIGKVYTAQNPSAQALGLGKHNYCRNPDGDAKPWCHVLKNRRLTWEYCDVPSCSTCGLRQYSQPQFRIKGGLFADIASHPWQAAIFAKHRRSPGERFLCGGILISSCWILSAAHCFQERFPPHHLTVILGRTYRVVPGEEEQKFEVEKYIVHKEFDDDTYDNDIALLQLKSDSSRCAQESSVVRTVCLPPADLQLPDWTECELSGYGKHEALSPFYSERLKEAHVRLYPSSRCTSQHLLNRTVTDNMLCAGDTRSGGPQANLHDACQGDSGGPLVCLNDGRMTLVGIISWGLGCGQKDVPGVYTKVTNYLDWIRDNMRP

Plasminogen [8] = molecular target: T1, Plasminogen; test: Ability to inhibit plasmin using human plasmin (quadratech) and Chromozym-PL (boehringer) as substrate
[9] = molecular target: T2, Tissue-type plasminogen activator; test: Ability to inhibit tissue plasminogen activator (quadratech) and S-2444 as substrate at concentration of 300 uM
Target sequence in this assay (P00750 36-562 limits assumed): as the sequence (P00750 36-562 limits assumed) above

T1 sequence (P00747 97-580 limits assumed): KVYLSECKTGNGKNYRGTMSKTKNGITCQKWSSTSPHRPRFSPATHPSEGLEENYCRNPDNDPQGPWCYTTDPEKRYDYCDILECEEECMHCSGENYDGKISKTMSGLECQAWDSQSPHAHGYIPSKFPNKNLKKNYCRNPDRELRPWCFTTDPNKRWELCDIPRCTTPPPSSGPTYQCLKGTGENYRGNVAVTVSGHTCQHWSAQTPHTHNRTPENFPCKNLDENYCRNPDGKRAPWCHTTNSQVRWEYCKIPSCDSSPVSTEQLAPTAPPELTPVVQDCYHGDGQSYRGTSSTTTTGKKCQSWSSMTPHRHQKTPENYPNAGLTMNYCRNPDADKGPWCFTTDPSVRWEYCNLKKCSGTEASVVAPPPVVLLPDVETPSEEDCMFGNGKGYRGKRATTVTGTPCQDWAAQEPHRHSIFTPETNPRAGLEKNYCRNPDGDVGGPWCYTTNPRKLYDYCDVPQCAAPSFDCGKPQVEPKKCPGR
T1 sequence (P00747 581-810 limits assumed): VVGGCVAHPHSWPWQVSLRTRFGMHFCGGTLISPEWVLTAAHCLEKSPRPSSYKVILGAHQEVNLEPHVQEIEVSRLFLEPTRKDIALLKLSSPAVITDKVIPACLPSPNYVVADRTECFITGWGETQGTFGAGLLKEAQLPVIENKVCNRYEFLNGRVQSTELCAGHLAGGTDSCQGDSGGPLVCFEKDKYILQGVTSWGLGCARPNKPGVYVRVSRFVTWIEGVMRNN

Ki [3] | inhibition [4] | inhibition (Plasminogen [5]) | Ki [7] | SMILES | other results
0.69 µM |  |  | 60.1 µM | COc1ccc(/C=C/c2cc(Cl)cnc2N=C(N)N)cc1 | Ki (Plasminogen [8]): 42.5 µM
0.49 µM |  | < 50% |  | N=C(N)Nc1ncc(Cl)cc1/C=C/c1ccc2c(c1)OCO2 | inhibition [9]: 50%
2 µM | < 50% | < 50% |  | CN(Cc1ccccc1)C(=O)/C=C/c1cc(Cl)cnc1N=C(N)N | 
16.1 µM |  |  |  | NC(N)=Nc1ncc(Cl)cc1OCC(=O)NCc1ccccc1 | 
1.28 µM | < 50% | < 50% |  | CNC(=O)/C=C/c1cc(Cl)cnc1N=C(N)N | 
 |  | < 50% | 53.8 µM | N=C(N)Nc1ncc(Cl)cc1/C=C/c1ccccc1 | 
1.6 µM |  | < 50% | 258 µM | N=C(N)Nc1ncc(Cl)cc1/C=C/c1ccccn1 | 
0.17 µM |  |  | 52 µM | NC(N)=Nc1ncc(Cl)cc1/C=C/c1cccc(C(=O)O)c1 | 

Further lines, the compound ahead of its results:

SMILES | Ki [3] | inhibition [4] | inhibition (Plasminogen [5]) | Ki [7] | other results
N=C(N)Nc1ncc(Cl)cc1/C=C/C(=O)O |  |  |  |  | Ki (Plasminogen [1]): 279 µM; inhibition [2]: < 50%
COCCOc1cc(Cl)cnc1N=C(N)N | 16.4 µM | < 50% | < 50% |  | 
N=C(N)Nc1ncc(Cl)cc1OCC(=O)O |  | < 50% | < 50% |  | 
N=C(N)Nc1ncc(Cl)cc1/C=C/c1cccc(C(=O)O)c1 |  |  |  |  | inhibition (Plasminogen [6]): < 50%
N=C(N)Nc1ncc(Cl)cc1Oc1ccccc1 | 2.13 µM |  | < 50% | 342 µM | 
N=C(N)Nc1ncc(Cl)cc1-c1ccccc1 | 166 µM | < 50% | < 50% |  | 
N=C(N)Nc1ncc(Cl)cc1/C=C/C(=O)NCc1ccccc1 | 0.77 µM | < 50% | < 50% |  | 
N=C(N)Nc1ncc(Cl)cc1C#Cc1ccccc1 |  |  |  | 65.9 µM | Ki (Plasminogen [8]): 218 µM
N=C(N)Nc1ncc(Cl)cc1OCc1ccccc1 | 0.92 µM | < 50% | < 50% |  | 
N=C(N)Nc1ncc(Cl)cc1/C=C/C(=O)N1CCOCC1 | 2.1 µM | < 50% | < 50% |  | 
N=C(N)Nc1ncc(Cl)cc1/C=C/C1CCCCC1 |  |  | < 50% | 71.5 µM | 
N=C(N)Nc1ncc(Cl)cc1CCC(=O)O |  | < 50% | < 50% |  | 
N=C(N)Nc1ncc(Cl)cc1OCC(=O)NCc1ccccc1 |  | < 50% | < 50% |  | 
